Consider 1 substance from patent EP2665736B1, “CORONA-LIKE (GUANIDYL)-OLIGOSACCHARIDIC DERIVATIVES AS CELL-P[…] FOR INTRACELLULAR DELIVERY OF COLLOIDAL T[…]” (Universita' Degli Studi Di Padova, priority 2011, dated 2012).

Where only a bound is given, the exact number is not on record here.

A word on the IC50: it is the concentration that gives 50% inhibition.

Assay [1] relates to MCF-7 cells. Briefly: Cytotoxicity test (MTT cell viability). Type of assay: cell-based, human. The following applies: 0 to 100 µM, 24 hours incubation plus 48 hours growth. The method, then:
(§1) The human MCF-7 breast adenocarcinoma and murine MC3T3-E1 embryonic fibroblast cell lines were growth in RPMI 1640 and DMEM medium, respectively, supplemented with 10% heated inactivated foetal bovine serum (FBS), 1% L-glutamine, 1% penicillin-streptomycin-amphotericin B mixture. All cells were maintained at 37 °C in humidified 5% CO2 atmosphere and splitted every 2-3 day.
(§2) MCF-7 and MC3T3-E1 cells were plated in 96-well flat bottomed microassay plates (1 × 10^4 cells/well) and grown for 24 hours. After complete adhesion, (arginyl)7-maltotriosyl-N-acetyl-amino-dodecanoic acid or 2 kDa polyethylenimine (PEI) as control were added to the culture media at increasing concentrations: from 0 to 100 µM. The cells were incubated for 24 hours at 37°C and then the medium was discarded by aspiration and replaced with 200 µl of fresh medium. The cells were grown for further 48 hours. Twenty microliters of 5 mg/mL of 3-(4,5-dimethylthiazol-2-yl)-2,5-diphenyltetrazolium bromide (MTT) in D-PBS were added to each well. […] The plates were gently shaken for 30 min and absorbance was measured at 570 nm with a reference wavelength of 630 nm. The cell viability was expressed as a percent viability of treated cells against untreated cells used as control. […]

In assay [2] the test system is MC3T3-E1 cells. Briefly: Cytotoxicity test (MTT cell viability). The format is cell-based, murine. Particulars: 0 to 100 µM, 24 hours incubation plus 48 hours growth. On the procedure: as §1, §2

For “(arginyl)7-maltotriosyl-N-acetyl-amino-dodecanoic acid”, the half-maximal inhibitory concentration (IC50) in assay [1] and in assay [2] was > 100 µM each time.
